{"source": "patent US10973810B2", "about": "“Methods for the treatment of neurological disorders” (Yumanity Therapeutics, Inc., priority 2017, dated 2021)", "key": {"[1]": {"tested_on": "human iPSC-derived neurons harboring the alpha-synuclein A53T mutation", "experiment": "Neuron survival assay, human iPSC-derived neurons harboring the alpha-synuclein A53T mutation", "format": "cell-based", "conditions": "100 nM and 30 nM; relative to DMSO controls in A53T neurons; 8 to 10 d", "protocol": "FIG. 15 is a graph showing that SCD inhibition with CAY10566 reduced the cumulative risk of death in human iPSC-derived neurons harboring the alpha-synuclein A53T mutation. Human iPSC cells harboring the alpha-synuclein A53T mutation or an isogenic control line in which the mutation was corrected to wild-type were trans-differentiated into neurons. Single cells were evaluated for survival (based on overall morphology) over the course of the 192 hour study. Cell survival data was analyzed by a non-parametric Kaplan-Meier procedure to estimate survival probability, which is shown as the cumulative risk of cell death. (HR, hazard ratio; P, p value (*<0.05, ns=not significant (>0.05)); CI, confidence interval; N, number of neurons tracked). […]\nTransfected neuronal cultures were imaged at 12-24 h intervals for the indicated number of days by robotic microscopy. Fluorescence images were acquired with a Nikon Eclipse Ti microscope equipped with a motorized stage, 20× extra-long working distance (ELWD) objective, and an Andor Zyla cMOS camera. […] Images were processed and analyzed with custom-made scripts in R and ImageJ software. The lifetimes of individual neurons were determined by tracking fluorescently-labeled neurons in ImageJ. Neuronal death was determined to occur upon incidence of RFP signal loss or rupture of cell body. […]"}, "[2]": {"tested_on": "A53T α-synuclein transfected human iPSC-derived neurons", "experiment": "Neuron survival, A53T α-synuclein transfected human iPSC-derived neurons", "format": "cell-based", "conditions": "all tested concentrations (3 μM to 0.3 μM); relative to DMSO controls", "protocol": "FIG. 16 is a graph illustrating that non-selective SCD reference inhibitor, CAY10566, reduces risk of death in A53T α-synuclein transfected human iPSC-derived neurons. Human iPSC-derived neurons were co-transfected with a fluorescence reporter plasmid encoding RFP (morphology tracer) and control plasmid (empty) or plasmid containing α-synuclein-A53T mutation (syn-A53T). Neuron groups as indicated were treated with either DMSO or CAY10566 at the indicated doses. The lifetimes of single neurons were tracked over time based on either loss of RFP fluorescence signal or morphological indicators of neuron death such as loss of neurites or cell blebbing. […] Cox proportional hazard analysis was used to estimate relative risk of death, or hazard ratio (HR) and the P value was determined by the logrank test. […]\nFIG. 17 is a graph illustrating that an SCD5-selective inhibitor reduces risk of death in A53T α-synuclein transfected human iPSC-derived neurons. Human iPSC-derived neurons were co-transfected with a fluorescence reporter plasmid encoding RFP (morphology tracer) and control plasmid (empty) or plasmid containing α-synuclein-A53T mutation (syn-A53T). […] The lifetimes of single neurons were tracked over time based on either loss of RFP fluorescence signal or morphological indicators of neuron death such as loss of neurites or cell blebbing. […]"}}, "data": [{"smiles": "Cc1nnc(-c2ccc(N3CCC(Oc4cc(F)ccc4Cl)CC3)nn2)o1", "note": "[CAY10566]", "values": [{"measurement": "risk of neuron death", "setting": "[1]", "value": "significantly reduced"}, {"measurement": "risk of neuron death", "setting": "[2]", "value": "significantly reduced"}]}]}
